Measurements as given in the supplement of paper PMC10307832.

How the values were obtained:
Assay in all cases: relative viability (nuclei count vs DMSO), 5 days (fraction); higher = more cells survive
[1] = compound: Cc1cc(Nc2cc(N3CCN(C)CC3)nc(Sc3ccc(NC(=O)C4CC4)cc3)n2)n[nH]1 [Tozasertib] + CCNC(=O)c1noc(-c2cc(C(C)C)c(O)cc2O)c1-c1ccc(CN2CCOCC2)cc1 [Luminespib] (partner 0.01 µM)
Outline: (§1)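 Relative viability divides the nuclei count in treated wells by that in vehicle wells. Lung cancer cell lines were seeded in 1536-well plates, dosed by pin tool the next day, and fixed and stained after 5 days in one step with final 0.05% Triton X-100, 1% formaldehyde and 1 ug/ml Hoechst. Dosing was a single drug or a fixed anchor-drug dose plus five library-drug doses (not always all listed) in √10 steps, and values are medians of duplicate plates imaged at 4×.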

[2] = compound: Cc1cc(Nc2cc(N3CCN(C)CC3)nc(Sc3ccc(NC(=O)C4CC4)cc3)n2)n[nH]1 [Tozasertib] + COc1cccc2cc(-c3nc([C@H]4CC[C@H](C(=O)O)CC4)n4ncnc(N)c34)[nH]c12 [OSI-027] (partner 0.5 µM)
Outline: as §1

[3] = compound: Cc1cc(Nc2cc(N3CCN(C)CC3)nc(Sc3ccc(NC(=O)C4CC4)cc3)n2)n[nH]1 [Tozasertib] + CS(=O)(=O)CCNCc1ccc(-c2ccc3ncnc(Nc4ccc(OCc5cccc(F)c5)c(Cl)c4)c3c2)o1 [Lapatinib] (partner 2 µM)
Outline: as §1

[4] = compound: Cc1cc(Nc2cc(N3CCN(C)CC3)nc(Sc3ccc(NC(=O)C4CC4)cc3)n2)n[nH]1 [Tozasertib] + Cc1nc(NC(=O)N2CCC[C@H]2C(N)=O)sc1-c1ccnc(C(C)(C)C(F)(F)F)c1 [Alpelisib] (partner 2 µM)
Outline: as §1

[5] = compound: Cc1cc(Nc2cc(N3CCN(C)CC3)nc(Sc3ccc(NC(=O)C4CC4)cc3)n2)n[nH]1 [Tozasertib] + N=C(N)NC(=N)NCCc1ccccc1 [Phenformin] (partner 250 µM)
Outline: as §1

Row | Cell Line | relative viability ([1]; first compound 0.004 µM) | relative viability ([1]; first compound 0.01265 µM) | relative viability ([1]; first compound 0.04 µM) | relative viability ([1]; first compound 0.1265 µM) | relative viability ([2]; first compound 0.004 µM) | relative viability ([2]; first compound 0.01265 µM) | relative viability ([2]; first compound 0.04 µM) | relative viability ([2]; first compound 0.1265 µM) | relative viability ([3]; first compound 0.004 µM) | relative viability ([3]; first compound 0.01265 µM) | relative viability ([3]; first compound 0.04 µM) | relative viability ([3]; first compound 0.1265 µM) | relative viability ([4]; first compound 0.004 µM) | relative viability ([4]; first compound 0.04 µM) | relative viability ([4]; first compound 0.1265 µM) | relative viability ([5]; first compound 0.004 µM) | relative viability ([5]; first compound 0.01265 µM) | relative viability ([5]; first compound 0.04 µM) | relative viability ([5]; first compound 0.1265 µM) | relative viability ([4]; first compound 0.01265 µM)
1 | LK-2 | 0.204 | 0.195 | 0.166 | 0.172 | 0.184 | 0.199 | 0.198 | 0.182 | 1.01 | 0.869 | 1.01 | 0.219 | 1.33 | 1.12 | 0.306 | 0.37 | 0.493 | 0.412 | 0.212 | 
2 | ChaGo-K-1 | 0.643 | 0.672 | 0.623 | 0.45 | 0.584 | 0.511 | 0.562 | 0.31 |  |  |  |  |  |  |  | 0.528 | 0.456 | 0.562 | 0.289 | 
3 | HOP-62 | 0.953 | 0.876 | 0.912 | 0.976 | 0.902 | 0.844 | 0.941 | 0.793 | 1.06 | 0.999 | 0.856 | 0.943 | 1.05 | 0.937 | 0.937 | 0.732 | 0.578 | 0.616 | 0.617 | 0.887
4 | 201T | 1.12 | 1.06 |  | 1.11 | 0.76 | 0.781 | 0.839 | 0.621 | 1 | 0.981 | 1.05 | 0.884 | 0.993 | 1.06 | 1 | 0.496 | 0.432 | 0.448 | 0.415 | 0.968
5 | LCLC-97TM1 | 0.895 |  | 0.724 | 0.615 | 0.571 | 0.507 | 0.526 | 0.371 |  | 0.884 | 1.04 | 0.592 |  | 0.32 | 0.207 | 0.438 | 0.437 | 0.459 | 0.407 | 0.247
6 | NCI-H2023 | 0.811 | 0.749 | 0.9 | 0.598 | 0.391 | 0.325 | 0.488 | 0.285 | 0.796 | 1.01 | 0.947 | 0.123 | 0.645 | 0.539 | 0.628 | 0.393 | 0.393 | 0.407 | 0.258 | 0.541
7 | COR-L23 | 0.836 | 0.619 | 0.618 | 0.637 | 0.747 | 0.726 | 0.635 | 0.538 | 1.02 | 0.863 | 0.721 | 0.247 | 0.827 | 0.585 | 0.699 | 0.44 | 0.425 | 0.407 | 0.176 | 0.763
8 | NCI-H460 | 0.031 | 0.0376 | 0.0324 | 0.0295 | 0.855 | 0.645 | 0.668 | 0.519 | 0.968 | 0.842 | 1.01 | 0.0247 | 0.544 | 0.449 | 0.293 | 0.529 | 0.463 | 0.578 | 0.159 | 0.435
9 | H3255 | 0.753 | 0.67 | 1.02 | 0.879 | 0.452 | 0.492 | 0.61 | 0.459 | 0.256 | 0.229 | 0.236 | 0.228 | 0.592 | 0.762 | 0.658 | 0.291 | 0.396 | 0.379 | 0.353 | 0.654
10 | SW 1573 | 0.25 | 0.239 | 0.139 | 0.228 | 0.619 | 0.526 | 0.512 | 0.204 | 1.03 | 1.23 | 1.21 | 1.05 | 0.751 | 0.615 | 0.702 | 0.35 | 0.393 | 0.361 | 0.284 | 0.674
11 | NCI-H23 | 0.198 | 0.221 | 0.183 | 0.198 | 0.614 | 0.629 | 0.666 | 0.453 | 1.1 | 0.96 | 0.989 | 0.269 | 0.638 | 0.781 | 0.361 | 0.76 |  | 0.85 | 0.745 | 0.578
12 | NCI-H1650 | 0.199 | 0.2 | 0.223 | 0.197 | 0.689 | 0.602 | 0.621 | 0.302 | 0.914 | 0.712 | 0.879 | 0.168 |  |  |  | 0.47 | 0.38 | 0.595 | 0.199 | 
13 | HCC-366 |  |  |  |  | 0.991 | 0.862 | 1.01 | 0.575 | 1.1 | 0.992 |  | 0.0536 | 0.37 | 0.558 | 0.13 | 0.629 | 0.56 | 0.661 | 0.651 | 0.476
14 | NCI-H1703 |  |  |  |  |  |  |  |  | 1.4 | 0.918 | 1.11 | 0.301 | 0.364 | 0.445 | 0.209 |  |  |  |  | 0.357
15 | A549 |  |  |  |  |  |  |  |  | 1.04 | 0.859 | 0.835 | 0.0927 | 0.686 | 0.759 | 0.211 | 0.117 | 0.161 | 0.169 | 0.0581 | 0.826
16 | HCC-78 |  |  |  |  | 0.387 | 0.357 | 0.363 | 0.361 | 0.985 | 0.58 |  | 0.643 | 0.38 | 0.46 | 0.241 | 0.957 | 0.608 | 0.699 | 0.525 | 0.305
17 | NCI-H441 | 0.361 | 0.323 | 0.312 | 0.261 | 0.57 | 0.647 | 0.568 | 0.6 |  |  |  |  | 0.69 | 0.758 | 0.541 | 0.955 | 0.852 | 0.937 | 0.768 | 0.69
18 | NCI-H2342 | 0.646 |  | 0.697 | 0.767 | 0.654 | 0.525 | 0.657 | 0.582 |  |  |  |  |  |  |  | 0.635 | 0.607 | 0.57 | 0.465 | 
